Assay results reported in publication PMC8153946, “Substrate Selectivity of Coumarin Derivatives by Human CYP1 Enzymes: In Vitro Enzyme Kinetics and In Silico Modeling” (ACS Omega, 2021).

How the values were obtained:
Assay type in all cases: biochemical
[1] = tested on: 13 recombinant human CYP enzymes; experiment: Oxidation rates by 13 recombinant human CYP enzymes at fixed substrate concentration (Figure 2); conditions: 25 nM CYP; for CYP1 form oxidizing the substrate fastest: 10 μM coumarin derivative or 1 μM 7-ethoxy/7-pentoxyresorufin; for oxidation rate relative to oxidation of 7-pentoxyresorufin / fluorescence change and rate of the oxidation: fixed substrate concentration
Experimental: (§1) Baculovirus-insect cell-expressed human CYP1A1, CYP1A2, CYP1B1, CYP2A6, CYP2B6, CYP2C8, CYP2C9, CYP2C19, CYP2D6, CYP2E1, CYP3A4, CYP3A5, and CYP3A7 were purchased from BD Biosciences Discovery Labware (Woburn, MA, USA) and used according to the manufacturer’s instructions.
(§2) The kinetic assays were carried out in 100 μL volume containing 100 mM Tris-HCl buffer pH 7.4, 0–40 μM coumarin derivative or 0–10 μM 7-ethoxyresorufin, 1–25 nM recombinant CYP or 0–0.1 g/L microsomal protein, and 20% NADPH regenerating system. Incubations took place at 37 °C in 96-multiwell plates; the fluorescence was measured with a Victor[2] plate reader (PerkinElmer Life Sciences, Turku, Finland). The detailed conditions are described in the figures and tables. The reaction was started by adding NADPH, and fluorescence was measured at 2 min intervals for 40 min using excitation at 405 nm and emission at 460 nm for oxidation of coumarin derivatives[18] and excitation at 570 nm and emission at 615 nm for ethoxyresorufin or pentoxyresorufin 7-O-dealkylations. Incubations without the substrate, enzyme, or NADPH were used as blank reactions. Resorufin was used as a standard, and 3-(4-fluorophenyl)-7-hydroxycoumarin was used as the surrogate standards to calculate the amount of product formed. The linear phase of the reactions was used for calculations.
To find out which CYP forms oxidize the 11 novel coumarin derivatives, we determined their oxidation rates to the corresponding 7-hydroxycoumarin metabolites by 13 recombinant human CYP enzymes at a fixed 10 μM substrate concentration (Figure 2). All except 21, 22, and 23 were oxidized faster by one or several CYP1 forms than by the other CYP forms. […] Oxidation rates of the classical CYP substrates 7-ethoxycoumarin, 7-ethoxyresorufin, and 7-pentoxyresorufin were also determined. […] Oxidation of 7-ethoxycoumarin and 7-ethoxyresorufin was 35 and 60 times faster, respectively, than oxidation of 7-pentoxyresorufin. 7-Ethoxyresorufin was oxidized by CYP1A2 and CYP1B1 at 30–40% of the rate of CYP1A1.
Figure 2 Oxidation of the coumarin derivatives and 7-ethoxy- and 7-pentoxyresorufin by 13 human CYP forms. The formation of fluorescent metabolites was determined in incubations containing a 25 nM CYP, a 20% NADPH regenerating system, and a 10 μM coumarin derivative or 1 μM 7-ethoxy/7-pentoxyresorufin in 100 mM Tris-HCl pH 7.4 in the kinetic experimental setup. […] Note the variation in Y-axis scales between subpanels.

[2] = molecular target: T1, human CYP1B1 (Homo sapiens, UniProt Q16678); experiment: Michaelis–Menten kinetics of oxidation to fluorescent 7-hydroxy metabolite by recombinant CYP1B1; design: key to screening activity class: NA, no activity was observed.; LA, low screening activity at the 20 μM substrate and 25 nM CYP concentration; conditions: for screening activity class: CYP1B1, 20 μM substrate and 25 nM CYP
T1 construct: purchased BD Biosciences Discovery Labware (Woburn, MA, USA); host or cells: baculovirus-insect cells
T1 sequence (Q16678 1-543): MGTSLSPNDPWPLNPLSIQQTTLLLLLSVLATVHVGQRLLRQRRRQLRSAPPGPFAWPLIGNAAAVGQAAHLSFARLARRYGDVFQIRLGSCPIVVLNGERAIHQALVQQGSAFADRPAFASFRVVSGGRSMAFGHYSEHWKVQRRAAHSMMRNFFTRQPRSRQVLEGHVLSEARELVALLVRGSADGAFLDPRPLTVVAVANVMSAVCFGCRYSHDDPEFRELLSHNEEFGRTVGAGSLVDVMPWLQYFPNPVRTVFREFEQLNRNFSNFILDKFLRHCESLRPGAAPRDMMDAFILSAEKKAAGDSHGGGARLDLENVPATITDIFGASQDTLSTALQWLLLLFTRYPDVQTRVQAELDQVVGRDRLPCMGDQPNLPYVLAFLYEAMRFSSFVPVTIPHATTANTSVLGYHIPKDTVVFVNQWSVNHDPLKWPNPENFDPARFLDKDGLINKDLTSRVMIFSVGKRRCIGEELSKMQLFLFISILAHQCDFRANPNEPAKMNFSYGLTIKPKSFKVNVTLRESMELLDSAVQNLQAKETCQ
Experimental: as §1, §2
(§3) Enzyme kinetic parameters were analyzed using the nonlinear Michaelis–Menten equation v = Vmax × S/(Km + S), in which v is the rate for 7-hydroxylation of a coumarin derivative, S is its concentration, and Vmax value is the limiting rate of the reaction of 7-hydroxylation, which reached a half-maximal rate at a concentration of Km for the substrate.

[3] = tested on: human CYP1 enzymes (CYP1A1, CYP1A2, CYP1B1); experiment: Oxidation efficiency compared across all CYP1 forms (Table 1); conditions: based on Table 1
Experimental: as §1, §2, §3

[4] = molecular target: T2, CYP1A2 (Homo sapiens, UniProt P05177); experiment: Michaelis–Menten kinetics of oxidation to fluorescent 7-hydroxy metabolite by recombinant CYP1A2; design: key to screening activity class: NA, no activity was observed.; LA, low screening activity at the 20 μM substrate and 25 nM CYP concentration; conditions: for Vmax: recombinant CYP1A2, surrogate standard
T2 construct: purchased BD Biosciences Discovery Labware (Woburn, MA, USA); host or cells: baculovirus-insect cells
T2 sequence (P05177 1-516): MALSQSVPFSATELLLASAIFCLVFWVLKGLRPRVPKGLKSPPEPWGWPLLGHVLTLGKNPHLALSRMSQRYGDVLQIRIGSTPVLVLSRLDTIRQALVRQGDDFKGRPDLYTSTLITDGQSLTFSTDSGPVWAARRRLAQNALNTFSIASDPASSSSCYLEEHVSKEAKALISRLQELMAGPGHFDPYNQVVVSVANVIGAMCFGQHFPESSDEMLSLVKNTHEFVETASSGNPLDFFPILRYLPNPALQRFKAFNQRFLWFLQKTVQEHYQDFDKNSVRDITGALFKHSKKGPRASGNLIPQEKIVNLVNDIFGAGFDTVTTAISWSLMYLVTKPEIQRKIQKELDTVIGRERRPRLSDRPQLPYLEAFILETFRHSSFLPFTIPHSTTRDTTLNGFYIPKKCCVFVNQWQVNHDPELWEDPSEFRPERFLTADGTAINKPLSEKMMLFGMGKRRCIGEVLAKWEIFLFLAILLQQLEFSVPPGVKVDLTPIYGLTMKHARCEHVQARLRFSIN
Experimental: as §1, §2, §3

[5] = molecular target: T3, human CYP1A1 (Homo sapiens, UniProt P04798); experiment: Michaelis–Menten kinetics of oxidation to fluorescent 7-hydroxy metabolite by recombinant CYP1A1; design: key to screening activity class: NA, no activity was observed.; LA, low screening activity at the 20 μM substrate and 25 nM CYP concentration; conditions: for screening activity class: CYP1A1, 20 μM substrate and 25 nM CYP; for Vmax: recombinant CYP1A1, surrogate standard, 95% confidence interval in brackets
T3 construct: purchased BD Biosciences Discovery Labware (Woburn, MA, USA); host or cells: baculovirus-insect cells
T3 sequence (P04798 1-512): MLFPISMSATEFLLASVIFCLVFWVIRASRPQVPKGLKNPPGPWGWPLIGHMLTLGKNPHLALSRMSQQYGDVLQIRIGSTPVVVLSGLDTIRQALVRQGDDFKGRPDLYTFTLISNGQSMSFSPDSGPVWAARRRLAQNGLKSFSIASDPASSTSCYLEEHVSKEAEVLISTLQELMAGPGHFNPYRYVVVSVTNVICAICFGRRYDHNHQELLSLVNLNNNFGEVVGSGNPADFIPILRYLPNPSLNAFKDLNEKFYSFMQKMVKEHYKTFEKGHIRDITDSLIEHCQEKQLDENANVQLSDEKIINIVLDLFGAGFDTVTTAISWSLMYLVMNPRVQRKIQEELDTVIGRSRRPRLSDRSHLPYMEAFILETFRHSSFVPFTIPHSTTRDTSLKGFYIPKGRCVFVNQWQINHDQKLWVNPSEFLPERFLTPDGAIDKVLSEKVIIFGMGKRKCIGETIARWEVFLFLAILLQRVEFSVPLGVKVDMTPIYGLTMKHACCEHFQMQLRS
Experimental: as §1, §2, §3

[6] = 95% confidence interval in brackets

SMILES | screening activity class [2] | CYP1 form oxidizing the substrate fastest [1] | substrate efficiency compared among CYP1 enzymes [3] | fluorescence change and rate of the oxidation [1] | other results
O=c1oc2ccc(O)cc2cc1-c1cccc(O)c1 [Compound 15, 3-(3-hydroxyphenyl)-6-hydroxycoumarin] |  | oxidized faster by CYP1A2 than CYP1A1 or CYP1B1 | efficient substrate for CYP1A2 compared with CYP1A1 and CYP1B1 |  | Vmax ([2]; recombinant CYP1B1, surrogate standard, 95% confidence interval in brackets): 0.29 mol/(min·mol CYP)
COc1ccc(-c2cc3cc(OC(C)=O)ccc3oc2=O)cc1 [Compound 17, 3-(4-methoxyphenyl)-6-acetoxycoumarin] | LA | oxidized faster by CYP1A2 than CYP1A1 or CYP1B1 |  |  | 
CCOc1ccc2ccc(=O)oc2c1 [Compound 24, 7-ethoxycoumarin, reference compound] |  | oxidized faster by CYP1A1 than the other CYP1 enzymes | efficient substrates for CYP1A1 compared with CYP1A2 and CYP1B1 |  | oxidation rate relative to oxidation of 7-pentoxyresorufin [1]: 35 times; Km ([4]; human, recombinant CYP1A2 (baculovirus-insect cell-expressed), recombinant CYP1A2, 100 mM Tris-HCl pH 7.4, 37 °C, 95% confidence interval in brackets): 7.7 µM; Vmax [4, 6]: 2.0 (1.4–2.6) mol/(min·mol CYP)
COc1ccc2oc(=O)c(-c3ccc(O)c(F)c3)cc2c1 [Compound 13, 3-(3-fluoro-4-hydroxyphenyl)-6-methoxycoumarin] |  | oxidized faster by CYP1A1 than CYP1A2 or CYP1B1 | efficient substrates for CYP1A1 compared with CYP1A2 and CYP1B1 |  | Vmax [5]: 32 mol/(min·mol CYP)
CC(=O)Oc1ccc(-c2cc3cc(Cl)ccc3oc2=O)cc1 [Compound 20, 3-(4-acetoxyphenyl)-6-chlorocoumarin] |  | oxidized faster by CYP1A1 than CYP1A2 or CYP1B1 | efficient substrate for CYP1B1 compared with CYP1A1 and 1A2 |  | Vmax [5]: 6.5 mol/(min·mol CYP)
CCCCCOc1ccc2nc3ccc(=O)cc-3oc2c1 [Compound 26, 7-pentoxyresorufin, reference compound] |  | oxidized faster by CYP1A1 than the other CYP1 enzymes | efficient substrates for CYP1A1 compared with CYP1A2 and CYP1B1 | lowest | Vmax [5]: 1.35 mol/(min·mol CYP); Vmax [4, 6]: 0.25 mol/(min·mol CYP)
COc1cccc(-c2cc3cc(OC)ccc3oc2=O)c1 [Compound 19, 3-(3-methoxyphenyl)-6-methoxycoumarin] |  | oxidized faster by CYP1A1 than CYP1A2 or CYP1B1 | oxidized with equal efficiency by all CYP1 enzymes |  | 
CCOc1ccc2nc3ccc(=O)cc-3oc2c1 [Compound 25, 7-ethoxyresorufin, reference compound] |  | oxidized faster by CYP1A1 than the other CYP1 enzymes | efficient substrates for CYP1A1 compared with CYP1A2 and CYP1B1 |  | oxidation rate by CYP1A2 and CYP1B1 relative to the rate of CYP1A1 ([1]; 1 μM substrate): 30–40%; oxidation rate relative to oxidation of 7-pentoxyresorufin [1]: 60 times
CC(=O)Oc1cccc(-c2cc3cc(Cl)ccc3oc2=O)c1 [Compound 22, 3-(3-acetoxyphenyl)-6-chlorocoumarin] |  | oxidized faster by CYP1B1 than by CYP1A1 or CYP1A2 |  | almost equally low | screening activity class [5]: LA; screening activity class ([4]; CYP1A2, 20 μM substrate and 25 nM CYP): LA

Now from value to compound, other results behind:

screening activity class [2] | SMILES | CYP1 form oxidizing the substrate fastest [1] | substrate efficiency compared among CYP1 enzymes [3] | fluorescence change and rate of the oxidation [1] | other results
LA | Cc1ccc2oc(=O)c(-c3ccc(F)cc3)cc2c1 [Compound 21, 3-(4-fluorophenyl)-6-methylcoumarin] | oxidized faster by CYP1A2 than CYP1A1 or CYP1B1 |  | almost equally low | screening activity class [5]: LA
LA | O=c1oc2ccccc2cc1-c1cccc(O)c1 [Compound 23, 3-(3-hydroxyphenyl)coumarin] | oxidized faster by CYP1A2 than CYP1A1 or CYP1B1 |  | lowest | screening activity class [5]: LA
LA | COc1ccc2cc(-c3ccc(OC(F)(F)F)cc3)c(=O)oc2c1 [Compound 18, 3-(4-trifluoromethoxyphenyl)-7-methoxycoumarin] | oxidized faster by CYP1A2 than CYP1A1 or CYP1B1 | oxidized with equal efficiency by CYP1A1 and CYP1A2 and weakly by CYP1B1 |  | 
LA | COc1ccc2oc(=O)c(-c3ccc(OC(F)(F)F)cc3)cc2c1 [Compound 16, 3-(4-trifluoromethoxyphenyl)-6-methoxycoumarin] | oxidized faster by CYP1A1 than CYP1A2 or CYP1B1 | oxidized with equal efficiency by CYP1A1 and CYP1A2 and weakly by CYP1B1 |  | 
